Read-outs that look alike come from different tables or passages of the source.
Experiments:
weeds = experiment: Pot test with Douglas-fir seedlings: weed growth on the soil surface; assay type: in vivo
Excerpt: (§1) The following granular herbicide formulations were used: • (a) 2,4-D 5%, melamine 71%, urea 24% • (b) 2,4-D 4.7%, melamine 88.1%, resin solids 7.2% • (c) 2,4-D/KL (a controlled release formulation of 2,4-D with kraft lignin 10%, melamine 72%, urea 18% • (d) Velpar® herbicide 5.35%, melamine 90.35%, resin solids 4.3% (V/MI) • (e) b and d, applied together • (f) control, no treatment • (g) technical 2,4-D treatment
(§2) Douglas-fir seedlings (2.0) were planted in 10" (25 cm) diameter pots. Each of the above five granule treatments was applied to three potted firs. Two control sets of potted seedlings had respectively no treatment, and an application of commercial 2,4-D, for comparison. In the application of the commercial 2,4-D, the fine powdered material was applied evenly to the soil surface, using the same 2,4-D material employed in making the granular formulations.
(§3) The 2,4-D was applied in all sets at the equivalent rate of 22.7 kg ai/ha and the Velpar® herbicide at 23.8 kg ai/ha (ai = active ingredient).
(§4) These sets were monitored for seedling height growth, growth quality of the seedling, and weed growth surrounding the seedling, represented as a % of soil surface.
There were no visible weeds present on the soil at the time of treatment. However, volunteer weed seeds were always present in the atmosphere and daily settled on the soil surface. […]

Alfalfa seeds = experiment: Pot test: germination of alfalfa seeds on treated soil; assay type: in vivo
Excerpt: The effectiveness of these granular materials in preventing the germination of alfalfa seeds was used as an assay of the continued performance of the 2,4-D admixed with the melamine compositions. As long as significant quantities of 2,4-D are present, alfalfa seed will not germinate completely. When the alfalfa seeds receiving the treatment germinate comparably to seeds which received no treatment, the period of effectiveness of the 2,4-D has ended.
Alfalfa seeds (1 gram) were planted on the surface of sieved unsterile compost soil in 2½ in. x 2½ in. (6.3 cm x 6.3 cm) plastic pots. Each test pot stood in a plastic saucer in order to avoid contamination between pots. After introduction of the seeds, the pots were well watered from the top and covered with another plastic dish until germination was established. This avoided unnecessary drying out of the soil and maintained an intimate moist atmosphere for seed germination. All test pots were kept in a controlled temperature room at 70°F for the duration of the trial. After germination was established the covers were removed to avoid any restriction of seedling growth. Seeds and plants were monitored daily, watered evenly as necessary, and growth changes recorded.
A series of four pot treatments was set up as follows: • (a) control pots to which no chemical was applied; • (b) 2,4-D alone (applied at a rate equivalent to 22.7 kg of 2,4-D/ ha ); • (c) 2,4-D/melamine granules of Example 1 (applied at a rate equivalent to 22.7 kg of 2,4-D/ha ); and • (d) melamine granules (not containing 2,4-D) in an amount equal to that used in treatment (c).
The melamine/binder ratio was essentially the same in the granules used in treatments (c) and (d), the difference being in the presence or absence of 2,4-D. The granules were used by distributing them over the soil surfaces in the pots.
For each treatment, replicates of three pots were set up in four groups (A), (B), (C) and (D) so that alfalfa seeds could be planted on undisturbed soil for each of the following three weeks. All pots in each series were treated equally from the outset with respect to applied material, watering and light. The experiment was started when the treatments were applied to all of the pots by sprinkling the applied material on the surface of the soil, and pots (A) were planted. One week later, alfalfa seeds were planted in pots (B). Another week later, pots (C) were planted with alfalfa seeds and finally three weeks after application of the chemicals, pots (D) were planted with alfalfa seeds.
The pots in the four groups of pots A, B, C and D thus were treated at the same time, some pots receiving treatment (a): no chemical applied, to provide a control; some treatment (b): 2,4-D alone applied; and so on. […]

[1] = Rate of release from granules in dialysis tubing into a water bath; assay type: physicochemical; settings: after 8-9 days
Experimental: Each of these formulations was made up into granules that were screened to fall within the size range of 0.84 to 1.41 mm.
In order to make measurements on the amount of herbicide released from each set of granules, a sample was taken of each. The sample was placed in dialysis tubing. The tubing was submerged in a covered container of distilled water containing 10 liters of water at 22°C. The solution was agitated and 10 ml. aliquots were removed at appropriate times.
The aliquots were subjected to analyses by an ultra-violet spectrophotometer at 203, 247 and 284 nm. respectively, for determination of the contents of melamine and herbicide.

Douglas-fir seedlings = experiment: Pot test with Douglas-fir seedlings: seedling height growth; assay type: in vivo; settings: Fig. 4: 24 weeks after the treatment date
Excerpt: as §1, §2, §3, §4
In the drawings, Figs. 1 and 3 compare the weed growth observed following soil treatment, using the pot-planted Douglas fir seedlings. […]

[2] = pH 7, cited from earlier work
[3] = Table II (Example 3), soil treatment applied at 0 days, 22.7 kg of 2,4-D/ha

Compound: O=C(O)COc1ccc(Cl)cc1Cl [2,4-D, 2,4-dichlorophenoxyacetic acid]
- weed control (in words) (weeds; 2,4-D 22.7 kg ai/ha, Velpar herbicide 23.8 kg ai/ha): initially gave good weed control
- weed population occupied % of the soil surface (weeds; by fourteen weeks, 22.7 kg ai/ha): ~90%
- mortality or aborted germination (Alfalfa seeds; Example 3, (A) pots, planted at 0 days): 100%
- Extent of Germination (B) Pots Planted; 7 Days Later (Alfalfa seeds; [3]): 80%
- Extent of Germination (C) Pots Planted; 14 Days Later (Alfalfa seeds; [3]): 90%
- Extent of Germination (D) Pots Planted; 21 Days Later (Alfalfa seeds; Table II (Example 3), soil treatment applied at 0 days, 22.7 kg of 2,4-D/ha, listed as 2,4-D alone): germinating as well as the controls
- herbicide entered the bath [1]: 100%
- mean height growth (Douglas-fir seedlings): 28 cm.
- height growth greater than the non-treated control (Douglas-fir seedlings; control 20 cm): 40%

Compound: Nc1nc(O)nc(O)n1 [Ammelide]
- Solubility (g/100g) ([2]; water at 20°C): less than 0.008 g/100g

Compound: Nc1nc(N)nc(O)n1 [Ammeline]
- Solubility (g/100g) ([2]; water at 20°C): 0.008 g/100g

Compound: Nc1nc(N)nc(-c2ccccc2)n1 [Benzoguanamine]
- Solubility (g/100g) ([2]; water, 22°C): 0.06 (22°C) g/100g

Compound: O=c1[nH]c(=O)[nH]c(=O)[nH]1 [Cyanuric Acid]
- Solubility (g/100g) [2]: 0.27 g/100g

Compound: N#CNC(=N)N [Dicyandiamide]
- Solubility (g/100g) [2]: 2.26 (at 13°C) g/100g

Compound: Nc1nc(N)nc(N)n1.O=[N+]([O-])O [Melamine Nitrate]
- Solubility (g/100g) [2]: 0.85 g/100g

Compound: Nc1nc(N)nc(N)n1 [Melamine]
- Solubility (g/100g) ([2]; water at 20°C): 0.50 g/100g

Compound: NC(N)=O [Urea]
- Solubility (g/100g) ([2]; water, at 25°C): 119.3 (at 25°C) g/100g

Compound: Potassium Acid Sulfate
- Solubility (g/100g) [2]: 51.4 g/100g
